We go through 47 compounds from publication PMC7321382, “Synthesis and Antibacterial Analysis of Analogues of the Marine Alkaloid Pseudoceratidine” (Molecules, 2020).

Converted amounts (≈) assume the structure as drawn.

The subject of one series is E. coli DH5α. The series can be described thus: Antibacterial MIC, broth microdilution, E. coli. To be noted: Gram-negative, 24 h incubation, highest concentration tested 128 µM, † lower starting concentration due to insolubility; for MIC: Escherichia coli. It counts as cell-based, Escherichia coli. The protocol: (§1) The MIC was determined using the broth microdilution method. Mueller Hinton (MH) broth base was prepared in milli-Q water, then autoclaved at 120 °C for 1 h before allowing it to cool to room temperature. A single colony of each bacterial strain (E. coli DH5α and S. aureus 16207) was inoculated in MHB and incubated at 37 °C overnight. Overnight cultures were adjusted to 10^6 CFU/mL in MHB according to the McFarland Standard,100 μL of which was further diluted to a total of 10 mL in the media. The stock solutions of the compounds were prepared at 12.8 mM in purified DMSO. The stock solutions were further diluted in milli-Q water to 64 μM in 0.5% DMSO for testing against S. aureus, and 256 μM in 2% DMSO for testing against E. coli. Compounds that were not soluble in these solvent mixtures were further diluted in half to get clear solutions for the bioassay. DMSO is known to have weak antibacterial activity. To exclude the antibacterial effect of DMSO from the results, a solution of 2% DMSO in milli-Q water was used as an additional control in the experiments. The compounds and three controls (the natural product pseudoceratidine 1 for both strains, streptomycin for S. aureus, and polymyxin B for E. coli) then underwent a dilution series. The assay was performed by adding 50 μL of each compound solution at the different concentrations and 50 μL of the diluted bacterial culture to the different wells of a 96-well microtiter plate. The experiments were performed at least thrice and in triplicates. MIC after 24 h of incubation was determined by both visual inspection and absorbance at 600 nm using an EnSpire Multimode plate reader.

A further series deals with S. aureus 16207. In words: Antibacterial MIC, broth microdilution, S. aureus. The note with it: Staphylococcus aureus, 16207; Gram-positive; 24 h incubation; highest concentration tested 32 µM. It counts as cell-based, Staphylococcus aureus. The protocol:
as §1
A general note: Broth dilution looks for growth in wells or tubes with falling amounts of substance.

Broadly, the MIC is the lowest concentration found to suppress growth. A higher MIC goes with weaker potency. `CN(C)CCCNC(=O)c1ccc[nH]1` [Compound 27a]: the figures for the MIC against E. coli DH5α and against S. aureus 16207 were over 128 µM and over 32 µM, respectively.
In general, melting point refers to the temperature of the solid-liquid transition. For `O=C(NCCCNCCCNC(=O)c1cc(I)c[nH]1)c1cc(I)c[nH]1` [Compound 14f], the melting point was 93 to 95 °C. Further, the MIC in the series with E. coli DH5α is over 128 µM. Moreover, the MIC in the series with S. aureus 16207 is over 32 µM.
For `O=C(NCCNCCNC(=O)c1ccc[nH]1)c1ccc[nH]1` [Compound 13a] the same measures were 191 to 193 °C, over 128 µM and over 32 µM.
For `CC(C)(C)OC(=O)NCCCNC(=O)c1cc(Br)c(Br)[nH]1` [Compound 28e], the MIC in the series with E. coli DH5α was over 128 µM; against S. aureus 16207 it was over 32 µM.
For `NCCCNCCNC(=O)c1cc(Br)c[nH]1` [Compound 21] the same measures were over 128 µM and over 32 µM.
Turning to `O=C(NCCCCNC(=O)c1cc(Cl)c(Cl)[nH]1)c1cc(Cl)c(Cl)[nH]1` [Compound 12c], the melting point is over 230 °C. For the same compound, the MIC with E. coli DH5α is over 64 µM. The MIC in the series with S. aureus 16207 was over 32 µM.
For `O=C(NCCCNCCCCNCCCNC(=O)c1cc(Br)c[nH]1)c1cc(Br)c[nH]1` [Compound 19d] the same measures were 173 to 175 °C, 64 to 128 µM (≈ 35 to 69.9 µg/mL) and 16 to 32 µM (≈ 8.74 to 17.5 µg/mL).
The compound `O=C(NCCNCCNC(=O)c1cc(Cl)c(Cl)[nH]1)c1cc(Cl)c(Cl)[nH]1` [Compound 13c] gave a melting point of over 230 °C. Besides, the MIC in the series on E. coli DH5α is over 64 µM. This compound showed an MIC in the series on S. aureus 16207 of over 32 µM.
For `O=C(NCCNCCNC(=O)c1cc(I)c[nH]1)c1cc(I)c[nH]1` [Compound 13f] the same measures were 193 to 195 °C, over 64 µM and over 32 µM.
With polymyxin B [reference compound], the “MIC E. Coli” value with E. coli DH5α lay within 0.3 to 0.6 µM.
The compound `O=C(NCCCCCCNCCCCCCNC(=O)c1cc(Cl)c[nH]1)c1cc(Cl)c[nH]1` [Compound 15b] displayed a melting point of 106 to 108 °C. The compound also had a minimum inhibitory concentration (MIC) in the series with E. coli DH5α of over 128 µM. In the series on S. aureus 16207, this compound came in with an MIC of over 32 µM.
As to `O=C(NCCCNCCCNCCCNC(=O)c1cc(Br)c[nH]1)c1cc(Br)c[nH]1` [Compound 18d], the MIC against E. coli DH5α lay in the range of 64 to 128 µM (≈ 34.1 to 68.1 µg/mL); in the series with S. aureus 16207, 16 to 32 µM (≈ 8.52 to 17 µg/mL).
Take `O=C(NCCCCNC(=O)c1cc(Br)c[nH]1)c1cc(Br)c[nH]1` [Compound 12d]: the melting point was over 230 °C. Moreover, the MIC with E. coli DH5α is over 64 µM. Further, the minimum inhibitory concentration (MIC) in the series with S. aureus 16207 is over 32 µM.
On the same counts, the results for `O=C(NCCCNCCNC(=O)c1cc(Br)c[nH]1)c1cc(Br)c[nH]1` [Compound 16d] are 188 to 190 °C, over 128 µM and over 32 µM.
For the compound `CN(C)CCCNC(=O)c1cc(Br)c(Br)[nH]1` [Compound 27e], the figures for the MIC against E. coli DH5α and with S. aureus 16207 were over 128 µM and over 32 µM, respectively.
For the compound `O=C(NCCCNCCCNCCCNC(=O)c1cc(Cl)c[nH]1)c1cc(Cl)c[nH]1` [Compound 18b], the MIC against E. coli DH5α was 64 to 128 µM (≈ 28.4 to 56.8 µg/mL); with S. aureus 16207 it was over 32 µM.
On to `CC(C)(C)OC(=O)NCCCNC(=O)c1ccc[nH]1` [Compound 28a], for which the melting point is 90 to 91 °C. The compound also yielded an MIC in the series with E. coli DH5α of over 128 µM. Moreover, in the series on S. aureus 16207, the MIC was over 32 µM.
For `O=C(NCCCNCCCCNCCCNC(=O)c1cc(Cl)c[nH]1)c1cc(Cl)c[nH]1` [Compound 19b] the same measures were 194 to 195 °C, over 128 µM and over 32 µM.
Regarding `CN(C)CCCNC(=O)c1cc(Cl)c(Cl)[nH]1` [Compound 27c], the values for the MIC against E. coli DH5α and in the series with S. aureus 16207 were over 128 µM and over 32 µM, respectively.
`O=C(NCCCNCCNC(=O)c1cc(I)c[nH]1)c1cc(I)c[nH]1` [Compound 16f] displayed a melting point of 178 to 180 °C. In addition, the MIC with E. coli DH5α is over 128 µM. Further, the MIC against S. aureus 16207 was over 32 µM.
`[H]/N=C(/N)N[C@H]1[C@H](O)[C@@H](O)[C@H](O[C@@H]2O[C@@H](C)[C@](O)(C=O)[C@H]2O[C@@H]2O[C@@H](CO)[C@H](O)[C@@H](O)[C@@H]2NC)[C@@H](N/C(N)=N\[H])[C@@H]1O` [Streptomycin, streptomycin, reference compound] gave an MIC against S. aureus 16207 of 0.625 to 1.25 µM (≈ 0.363 to 0.727 µg/mL).
With `CN(C)CCCNC(=O)c1cc(Br)c[nH]1` [Compound 27d], the figures for the MIC against E. coli DH5α and against S. aureus 16207 were over 128 µM and over 32 µM, respectively.
On the same counts, the results for `O=C(NCCCCNCCCNC(=O)c1ccc[nH]1)c1ccc[nH]1` [Compound 17a] are over 128 µM and over 32 µM.
`O=C(NCCCCNCCCNC(=O)c1cc(Cl)c(Cl)[nH]1)c1cc(Cl)c(Cl)[nH]1` [Compound 17c]: the MIC against E. coli DH5α is 128 to 256 µM (≈ 60.1 to 120 µg/mL); against S. aureus 16207 it was over 32 µM.
For `O=C(NCCCNCCCCNCCCNC(=O)c1ccc[nH]1)c1ccc[nH]1` [Compound 19a], the melting point fell in the range of 175 to 176 °C. Besides, the MIC against E. coli DH5α was over 128 µM. In the series with S. aureus 16207, this compound yielded an MIC of over 32 µM.
On to `NCCNCCCNC(=O)c1cc(Br)c[nH]1` [Compound 22], for which the MIC was over 128 µM against E. coli DH5α and over 32 µM against S. aureus 16207.
In the case of `O=C(NCCCNCCCNC(=O)c1cc(Br)c[nH]1)c1cc(Br)c[nH]1` [Compound 14d], the melting point lay in the range of 73 to 75 °C. The MIC in the series on E. coli DH5α was over 128 µM. Further, the MIC in the series with S. aureus 16207 is over 32 µM.
Take `O=C(NCCNCCNC(=O)c1cc(Cl)c[nH]1)c1cc(Cl)c[nH]1` [Compound 13b]: the melting point lay in the range of 199 to 201 °C. The MIC in the series on E. coli DH5α is over 128 µM. Further, in the series with S. aureus 16207, the MIC was over 32 µM.
The compound `O=C(NCCCNCCCNCCCNC(=O)c1cc(I)c[nH]1)c1cc(I)c[nH]1` [Compound 18f] yielded a melting point of 78 to 80 °C. Moreover, in the series on E. coli DH5α, the MIC lay in the range of 64 to 128 µM (≈ 40.1 to 80.2 µg/mL). This compound also had an MIC in the series with S. aureus 16207 of 16 to 32 µM (≈ 10 to 20 µg/mL).
Take `O=C(NCCCCNCCCNC(=O)c1cc(Br)c[nH]1)c1cc(Br)c[nH]1` [Compound 17d]: the MIC in the series on E. coli DH5α is over 128 µM; with S. aureus 16207, over 32 µM.
Take `O=C(NCCCCNC(=O)c1cc(Cl)c[nH]1)c1cc(Cl)c[nH]1` [Compound 12b]: the melting point is over 230 °C. Also, the MIC with E. coli DH5α was over 64 µM. The compound also returned an MIC in the series with S. aureus 16207 of over 32 µM.
On the same counts, the results for `O=C(NCCCCNCCCNC(=O)c1cc(Cl)c[nH]1)c1cc(Cl)c[nH]1` [Compound 17b] are 80 to 81 °C, over 128 µM and over 32 µM.
On the same counts, the results for `O=C(NCCCCNC(=O)c1cc(Br)c(Br)[nH]1)c1cc(Br)c(Br)[nH]1` [Compound 12e] are over 230 °C, over 64 µM and over 32 µM.
On the same counts, the results for `CC(C)(C)OC(=O)NCCCNC(=O)c1cc(Cl)c(Cl)[nH]1` [Compound 28c] are 158 to 160 °C, over 128 µM and over 32 µM.
For `NCCCNCCNC(=O)c1cc(Br)c(Br)[nH]1` [Compound 23], the MIC is over 128 µM with E. coli DH5α and over 32 µM in the series with S. aureus 16207.
In turn, `O=C(NCCNCCNC(=O)c1cc(Br)c[nH]1)c1cc(Br)c[nH]1` [Compound 13d] had a melting point of 201 to 203 °C. In the series on E. coli DH5α, the MIC is over 128 µM. For the same compound, in the series with S. aureus 16207, the minimal inhibitory concentration (MIC) was over 32 µM.
On to `O=C(NCCCNCCCNC(=O)c1cc(Cl)c[nH]1)c1cc(Cl)c[nH]1` [Compound 14b], for which the melting point is 78 to 80 °C. Besides, the MIC against E. coli DH5α was over 128 µM. Moreover, the minimal inhibitory concentration (MIC) in the series with S. aureus 16207 is over 32 µM.
With `O=C(NCCCNCCCNCCCNC(=O)c1ccc[nH]1)c1ccc[nH]1` [Compound 18a], the values for the MIC against E. coli DH5α and in the series on S. aureus 16207 were over 128 µM and over 32 µM, respectively.
In the case of `CC(C)(C)OC(=O)NCCCNC(=O)c1cc(Cl)c[nH]1` [Compound 28b], the values for the MIC in the series with E. coli DH5α and with S. aureus 16207 were over 128 µM and over 32 µM, respectively.
`O=C(NCCCCNCCCNC(=O)c1cc(I)c[nH]1)c1cc(I)c[nH]1` [Compound 17f] gave a melting point of 89 to 90 °C. In the series with E. coli DH5α, this compound showed an MIC of over 128 µM. This compound registered an MIC against S. aureus 16207 of over 32 µM.
On the same counts, the results for `O=C(NCCCNCCNC(=O)c1cc(Cl)c[nH]1)c1cc(Cl)c[nH]1` [Compound 16b] are 167 to 169 °C, over 128 µM and over 32 µM.
Consider `CC(C)(C)OC(=O)NCCCNC(=O)c1cc(Br)c[nH]1` [Compound 28d], for which the results for the MIC in the series on E. coli DH5α and against S. aureus 16207 were over 128 µM and over 32 µM, respectively.
For `O=C(NCCCCNC(=O)c1cc(I)c[nH]1)c1cc(I)c[nH]1` [Compound 12f] the same measures were over 64 µM and over 32 µM.
On the same counts, the results for `NCCNCCNC(=O)c1ccc[nH]1` [Compound 20] are over 128 µM and over 32 µM.
Consider `CN(C)CCCNC(=O)c1cc(I)c[nH]1` [Compound 27f], for which the melting point lay in the range of 169 to 171 °C. In the series on E. coli DH5α, this compound came in with a minimal inhibitory concentration (MIC) of over 128 µM. Moreover, the MIC in the series on S. aureus 16207 was over 32 µM.
In the case of `CN(C)CCCNC(=O)c1cc(Cl)c[nH]1` [Compound 27b], the results for the MIC in the series with E. coli DH5α and with S. aureus 16207 were over 128 µM and over 32 µM, respectively.
For `NCCNCCCNC(=O)c1cc(Br)c(Br)[nH]1` [Compound 24] the same measures were over 128 µM and over 32 µM.
